Data from ChEMBL document CHEMBL4665770, “Design and Discovery of Natural Cyclopeptide Skeleton Based Programmed Death Ligand 1 Inhibitor as Immune Modulator for Cancer Therapy” (J Med Chem, 2020).
pIC50, pKd: −log10 of the molar value. The source made the active and inactive calls. The calls are words filed in the database; no cut-off is given here.

Columns and labels:
MC-38 [1] = assay: Induction of immune response mediated antitumor activity in mouse MC38 cells xenografted in C57/BL mouse assessed as tumor growth inhibition at 40 mg/kg, ip administered every other day from day 6 post implantation measured every 2 days; type: functional, organism-based
[2] = Induction of immune response mediated antitumor activity in mouse B16F10 cells xenografted in C57/BL mouse assessed as reduction in tumor weight at 40 mg/kg, ip administered every other day from day 6 post implantation measured every 2 days relative to control; type: functional, B16-F10; set-up: scale not given: the % may be the effect or the level left
MDA-MB-231 [3] = assay: Immunomodulatory activity in human MDA-MB-231 cells cocultured with human PBMC assessed as induction of PBMC recruitment to MDA-MB-231 cells by measuring increase in activated caspase-3 at 20 uM incubated for 24 hrs by GrennNuc caspase-3 substrate based assay; type: functional, cell-based
[4] = target: Programmed cell death protein 1 (Homo sapiens, UniProt Q15116); assay: Binding affinity to PD1 (unknown origin) by SPR analysis
[5] = target: Programmed cell death 1 ligand 1 (Homo sapiens, UniProt Q9NZQ7); assay: Binding affinity to PDL1 (unknown origin) by SPR analysis
MDA-MB-231 [6] = assay: Cytotoxicity against human MDA-MB-231 cells expressing luciferase assessed as reduction in cell viability at 0.312 to 80 uM incubated for 72 hrs by tecan-plate reader based luciferase assay; settings: mda-mb-231, 72 h, dose 0.312-80 µM
[7] = target: T1, Programmed cell death protein 1/Programmed cell death 1 ligand 1 (Homo sapiens, UniProt Q9NZQ7); assay: Inhibition of FC-tagged PD1/His-tagged PD-L1 (unknown origin) protein-proteiinteraction incubated for 3 hrs by coimmunoprecipitation-based Western blot assay; type: protein-complex assay
[8] = target: Programmed cell death protein 1/Programmed cell death 1 ligand 1 (Homo sapiens) (UniProt Q15116+Q9NZQ7); assay: Inhibition of PD1-Tag2/PD-L1-Tag1 (unknown origin) protein-protein interaction at 20 uM preincubated for 15 mins followed by addition of anti-Tag1-Eu3+ and anti-Tag2-XL665 measured after 3 hrs by HTRF assay relative to control; type: protein-complex assay; settings: time 195.0 min
MDA-MB-231 [9] = assay: Immunomodulatory activity in human MDA-MB-231 cells expressing luciferase assessed as induction of PBMC-induced cell death incubated for 72 hrs by tecan-plate reader based luciferase assay; type: functional; settings: dose microM 0.313-80, time 72.0 hrs
[10] = Toxicity in mouse MC38 cells xenografted C57/BL mouse assessed as change in body weight at 40 mg/kg, ip administered every other day from day 6 post implantation measured every 2 days; type: organism-based; settings: in vivo, 48 h
MC-38 [11] = assay: Immunomodulatory activity in mouse MC38 cells xenografted in C57/BL mouse assessed as increase in infiltration of CD8-positive T cells at 40 mg/kg, ip administered every other day from day 6 post implantation by DAPI staining based immunofluorescence microscopy; type: functional, organism-based
[12] = Induction of immune response mediated antitumor activity in mouse B16F10 cells xenografted in C57/BL mouse assessed as infiltration of CD45 cells at 40 mg/kg, ip administered every other day from day 6 post implantation by flow cytometry (reference value: 1.81 %); type: functional, B16-F10
[13] = target: T1, Programmed cell death protein 1/Programmed cell death 1 ligand 1; assay: Inhibition of PD1-Tag2/PD-L1-Tag1 (unknown origin) protein-protein interaction preincubated for 15 mins followed by addition of anti-Tag1-Eu3+ and anti-Tag2-XL665 measured after 3 hrs by HTRF assay; type: protein-complex assay
MDA-MB-231 [14] = assay: Immunomodulatory activity in human CFDA SE-labelled MDA-MB-231 cells cocultured with PMBC assessed as induction of PBMC recruitment to MDA-MB-231 cells by measuring necrotic cell at 20 uM incubated for 48 hrs by propidium iodide staining based flow cytometry analysis (reference value: 0.13 %); type: functional
[15] = Induction of apoptosis in human PBMC cells assessed as activated caspase-3 at 20 uM incubated for 24 hrs by GrennNuc caspase-3 substrate based assay; type: cell-based
MDA-MB-231 [16] = assay: Immunomodulatory activity in human CFDA SE-labelled MDA-MB-231 cells cocultured with PMBC assessed as induction of PBMC recruitment to MDA-MB-231 cells by measuring early apoptotic cells at 20 uM incubated for 48 hrs by propidium iodide staining based flow cytometry analysis (reference value: 0 %); type: functional
[17] = Induction of immune response mediated antitumor activity in mouse B16F10 cells xenografted in C57/BL mouse assessed as infiltration of CD3 cells at 40 mg/kg, ip administered every other day from day 6 post implantation by flow cytometry (reference value: 1.45 %); type: functional, B16-F10
B16-F10 [18] = assay: Induction of immune response mediated antitumor activity in mouse B16F10 cells xenografted in C57/BL mouse assessed as change in ratio of CD3+/CD45+ cells at 40 mg/kg, ip administered every other day from day 6 post implantation by flow cytometry; type: functional, organism-based
MDA-MB-231 [19] = assay: Immunomodulatory activity in human MDA-MB-231 cells expressing luciferase assessed as induction of PBMC-induced cell death incubated for 72 hrs by LDH assay; type: functional, cell-based; settings: dose microM 0.313-80, time 72.0 hrs
MDA-MB-231 [20] = assay: Cytotoxicity against human MDA-MB-231 cells assessed as reduction in cell viability at 0.312 to 80 uM incubated for 72 hrs by MTT assay; type: cell-based; settings: mda-mb-231, 72 h, dose 0.312-80 µM
MC-38 [21] = assay: Immunomodulatory activity in mouse MC38 cells xenografted in C57/BL mouse assessed as increase in perforin at 40 mg/kg, ip administered every other day from day 6 post implantation by hematoxylin staining based immunohistochemical analysis; type: functional, organism-based
MC-38 [22] = assay: Immunomodulatory activity in mouse MC38 cells xenografted in C57/BL mouse assessed as increase in granzyme B at 40 mg/kg, ip administered every other day from day 6 post implantation by hematoxylin staining based immunohistochemical analysis; type: functional, organism-based
MC-38 [23] = assay: Immunomodulatory activity in mouse MC38 cells xenografted in C57/BL mouse assessed as increase in infiltration of CD3-positive T cells at 40 mg/kg, ip administered every other day from day 6 post implantation by DAPI staining based immunofluorescence microscopy; type: functional, organism-based
MDA-MB-231 [24] = assay: Immunomodulatory activity in human CFDA SE-labelled MDA-MB-231 cells cocultured with PMBC assessed as induction of PBMC recruitment to MDA-MB-231 cells by measuring late apoptotic cells at 20 uM incubated for 48 hrs by propidium iodide staining based flow cytometry analysis (reference value: 0 %); type: functional
MDA-MB-231 [25] = assay: Immunomodulatory activity in human MDA-MB-231 cocultured with PMBC assessed as induction of PBMC recruitment to MDA-MB-231 cells by measuring increase in cell cluster at 20 uM incubated for 12 to 48 hrs by EVOS FL digital microscopic analysis; type: functional, cell-based; settings: time hrs 12-48
MDA-MB-231 [26] = assay: Induction of apoptosis in human MDA-MB-231 cells assessed as activated caspase-3 at 20 uM incubated for 24 hrs by GrennNuc caspase-3 substrate based assay; type: cell-based; settings: mda-mb-231, 24 h
B16-F10 [27] = assay: Induction of immune response mediated antitumor activity in mouse B16F10 cells xenografted in C57/BL mouse coadministered with anti-CD8 antibody assessed as suppression of tumor growth at 40 mg/kg, ip administered every other day from day 6 post implantation measured every 2 days; type: functional, organism-based
[28] = Induction of immune response mediated antitumor activity in mouse B16F10 cells xenografted in C57/BL mouse assessed as infiltration of CD8 cells at 40 mg/kg, ip administered every other day from day 6 post implantation by flow cytometry (reference value: 26.9 %); type: functional, B16-F10
MDA-MB-231 [29] = assay: Immunomodulatory activity in human CFDA SE-labelled MDA-MB-231 cells cocultured with PMBC assessed as induction of PBMC recruitment to MDA-MB-231 cells by measuring viable cells at 20 uM incubated for 48 hrs by propidium iodide staining based flow cytometry analysis (reference value: 99.87 %); type: functional
B16-F10 [30] = assay: Toxicity in mouse B16F10 cells xenografted C57/BL mouse assessed as change in body weight at 40 mg/kg, ip administered every other day from day 6 post implantation measured every 2 days; type: organism-based; settings: in vivo, 48 h
[31] = Induction of immune response mediated antitumor activity in mouse B16F10 cells xenografted in C57/BL mouse assessed as reduction in tumor volume at 40 mg/kg, ip administered every other day from day 6 post implantation measured every 2 days relative to control; type: functional, B16-F10; set-up: scale not given: the % may be the effect or the level left
B16-F10 [32] = assay: Induction of immune response mediated antitumor activity in mouse B16F10 cells xenografted in C57/BL mouse assessed as change in ratio of CD8+/CD3+ cells at 40 mg/kg, ip administered every other day from day 6 post implantation by flow cytometry; type: functional, organism-based
[33] = Toxicity in mouse MC38 cells xenografted C57/BL mouse assessed as death at 40 mg/kg, ip administered every other day from day 6 post implantation measured on day 14; type: organism-based; settings: in vivo, time 14 day, read-out: Activity

T1 sequence (Q15116 whole entry): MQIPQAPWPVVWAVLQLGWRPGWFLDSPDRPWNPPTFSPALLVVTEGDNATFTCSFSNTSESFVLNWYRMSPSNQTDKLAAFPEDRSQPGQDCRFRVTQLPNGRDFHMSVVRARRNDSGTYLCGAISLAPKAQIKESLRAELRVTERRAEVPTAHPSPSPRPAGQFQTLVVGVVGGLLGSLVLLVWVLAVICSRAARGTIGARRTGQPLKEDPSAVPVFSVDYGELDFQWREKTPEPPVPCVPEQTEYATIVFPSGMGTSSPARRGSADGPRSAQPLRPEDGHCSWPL
T1 sequence (Q9NZQ7 whole entry): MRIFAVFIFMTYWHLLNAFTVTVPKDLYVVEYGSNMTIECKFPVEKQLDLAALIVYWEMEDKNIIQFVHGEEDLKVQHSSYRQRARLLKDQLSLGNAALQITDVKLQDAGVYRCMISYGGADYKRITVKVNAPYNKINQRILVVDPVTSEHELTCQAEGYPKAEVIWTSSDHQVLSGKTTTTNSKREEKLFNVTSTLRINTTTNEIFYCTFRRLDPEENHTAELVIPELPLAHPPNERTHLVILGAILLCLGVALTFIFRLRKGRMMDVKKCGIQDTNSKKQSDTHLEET
Programmed cell death protein 1, sequence (Q15116 whole entry): as the sequence (Q15116 whole entry) above
Programmed cell death 1 ligand 1, sequence (Q9NZQ7 whole entry): as the sequence (Q9NZQ7 whole entry) above

With `CC(NCCCC[C@@H]1NC(=O)[C@@H](Cc2ccccc2)NC(=O)[C@H](CC(C)C)NC(=O)[C@H](CC(=O)O)NC(=O)[C@H]([C@@H](C)O)NC(=O)[C@@H]2CCCN2C(=O)[C@@H](Cc2c[nH]c3ccccc23)NC(=O)[C@H](CC(C)C)NC(=O)[C@H](CCCNC(=N)N)NC(=O)[C@H](C(C)C)NC1=O)=C1C(=O)CC(C)(C)CC1=O` the TGI (MC-38 [1]) was “Active”, the Activity [2] was 64.9% and the Activity (MDA-MB-231 [3]) was “Active”. The pKd [4] was 2.78, the pKd [5] was 5.25 and the Activity (MDA-MB-231 [6]) was “Non-Toxic”. For the same molecule, the pIC50 [7] was 6.35, the inhibition [8] was 95.8% and the Activity (MDA-MB-231 [9]) was “Dose-dependent effect”. For the same molecule, the Activity [10] was “Non-Toxic”, the Activity (MC-38 [11]) was “Active” and the Activity [12] was 13.3%. For the same molecule, the pIC50 [13] was 5.85, the Activity (MDA-MB-231 [14]) was 0% and the Activity [15] was “Non-Toxic”. For the same molecule, the Activity (MDA-MB-231 [16]) was 42.33%, the Activity [17] was 5.21% and the Activity (B16-F10 [18]) was “inactive”. For the same molecule, the Activity (MDA-MB-231 [19]) was “Dose-dependent effect”, the Activity (MDA-MB-231 [20]) was “Non-Toxic” and the Activity (MC-38 [21]) was “Active”. The Activity (MC-38 [22]) was “Active”, the Activity (MC-38 [23]) was “Active” and the Activity (MDA-MB-231 [24]) was 57.03%. The Activity (MDA-MB-231 [25]) was “Active”, the Activity (MDA-MB-231 [26]) was “Non-Toxic” and the Activity (B16-F10 [27]) was “inactive”. The Activity [28] was 36.5%, the Activity (MDA-MB-231 [29]) was 0.46% and the Activity (B16-F10 [30]) was “Non-Toxic”. For the same molecule, the Activity [31] was 54.8% and the Activity (B16-F10 [32]) was “inactive”.
With `Cc1c(COc2ccc(CN3CCCCC3C(=O)O)cc2Br)cccc1-c1ccccc1` (centres undefined) the TGI (MC-38 [1]) was “Active”, the Activity (MDA-MB-231 [3]) was “Active” and the Activity [10] was “Toxic”. The Activity (MC-38 [11]) was “Active”, the Activity (MDA-MB-231 [14]) was 0% and the Activity (MDA-MB-231 [16]) was 55%. The Activity (MC-38 [21]) was “Active”, the Activity (MC-38 [22]) was “Active” and the mortality at 336 h [33] was 75%. For the same molecule, the Activity (MC-38 [23]) was “Active”, the Activity (MDA-MB-231 [24]) was 44.69% and the Activity (MDA-MB-231 [29]) was 0.31%.
